Results on three molecules are retold here after patent US11155567B2, “Sting agonist compounds and methods of use” (Mersana Therapeutics, Inc., priority 2019, dated 2021).

Common to all, as to type: cell-based
One experiment concerns the target T1, Human STING (HAQ allele) (Homo sapiens, UniProt Q86WV6, G230A/H232R/R293Q/R71H).
T1 construct: THP1-Dual™ Human Monocytes cells with the homozygous HAQ allele; host or cells: THP1-Dual human monocytes
Description: IRF3 reporter induction in THP1-Dual Human Monocytes cells (homozygous HAQ STING allele). Conditions: IRF3 reporter (secreted luciferase), 24 hours incubation. The protocol:
(§1) THP1-Dual™ Human Monocytes cells with the homozygous HAQ allele, known to be a natural variant allele of STING occurring in 20% of the human population (Invivogen) have been engineered with two independent gene reporter systems: a secreted embryonic alkaline phosphatase (SEAP) reporter gene for NFkB activity, and secreted luciferase reporter for […] (IRF3) activity were used. 4×10^5 THP1-Dual™ cells were incubated with test Compounds in a 5-fold titration steps from 1 to 0.0128 μM in RPMI media with 10% FBS, for 24 hours at 37° C. with 5% CO2. Cell culture supernatants (20 μl) from each incubated sample was added to resuspended QUANTI-Blue™ Solution (Invivogen, 180 μl) in each well of a flat-bottom 96-well plate, then incubated for 2 h. NFkB levels were evaluated using a spectrophotometer at 620-655 nm.
(§2) To evaluate IRF3 reporter levels, cell culture supernatant (20 μl) from each incubated sample was added to QUANTI-Luc™ assay solution (Invivogen, 50 μl), and the luminescence was measured with a SpectraMax M3 spectrophotometer (Molecular Devices).
(§3) The EC50 value was determined from the dose response curve based on reference Compounds. Table 2a provides the results for IRF3 reporter induction THP1-Dual™ Human Monocytes cells and Table 2b provides the results for IRF3 reporter induction in THP1-Dual™ KI-hSTING-H232 Cells and THP1-Dual™ KI-hSTING-R232 Cells (“A” means <30 nM; “B” means ≥30 nM and <100 nM; “C” means ≥100 nM).

Experiment [1] deals with T2, R232H human STING variant (Homo sapiens, UniProt Q86WV6).
T2 construct: host or cells: THP1-Dual KI-hSTING-H232 cells, generated from THP1-Dual KO-STING cells
Nature of the experiment: IRF3 reporter induction in THP1-Dual KI-hSTING-H232 Cells. Conditions: THP1-Dual KI-hSTING-H232 Cells (R232H Haplotype). On the procedure: as §1, §2
(§4) NFkB and IRF3 reporter levels were also determined for THP1-Dual™ KI-hSTING-H232 Cells and THP1-Dual™ KI-hSTING-R232 Cells. THP1-Dual™ KI-hSTING-H232 Cells (R232H Haplotype) were generated from THP1-Dual™ KO-STING cells by knockin of the intronless coding sequence (from the ATG to TGA) of the R232H human STING variant (Invivogen). R232H has been identified as a natural variant allele of STING occurring in ˜14% of the human population. THP1-Dual™ KI-hSTING-R232 Cells (R232 Haplotype) were generated from THP1-Dual™ KO-STING cells by knockin of the intronless coding sequence (from the ATG to the TGA) of the R232 hSTING variant. Genomic studies indicate that this variant, which contains an arginine at position 232 (R232), is the most prevalent variant with an occurrence (homozygous allele) of ˜45-58% in the human population.
as §3

A further experiment concerns the target T3, R232 hSTING variant (Homo sapiens, UniProt Q86WV6, H232R).
T3 construct: expressed in transfected cells; host or cells: THP1-Dual KI-hSTING-R232 cells, generated from THP1-Dual KO-STING cells
Description: IRF3 reporter induction in THP1-Dual KI-hSTING-R232 Cells. Particulars: THP1-Dual KI-hSTING-R232 Cells (R232 Haplotype). On the procedure: as §1, §2, §4, §3

A further experiment concerns the target T4, Human STING (Homo sapiens, UniProt Q86WV6, G230A/H232R/R293Q/R71H).
T4 construct: host or cells: THP1-Dual cells, digitonin-permeabilized
Nature of the experiment: Activation of human STING signaling in permeabilized THP1 cells, IRF3 induction. Conditions: THP1-Dual cells permeabilized with digitonin buffer 30 minutes on ice, then 24 h in RPMI media. On the procedure: as §2
4×10^5 THP1-Dual™ cells (NF-κB-SEAP and IRF-Lucia luciferase Reporter Monocytes, Invivogen) were incubated with test Compounds in a 5-fold titration steps from […] in permeabilized buffer (50 mM HEPES pH 7.0, 100 mM KCl, 3 mM MgCl2, 85 mM sucrose, 0.2% BSA, 1 mM ATP, 0.1 mM GTP, 0.1 mM TTP, 1 μg/ml digitonin) for 30 minutes on ice. Cells were then washed and incubated in a fresh RPMI media with 10% FBS at 37° C. with 5% CO2 for 24 h. Cell culture supernatants from each sample were collected and NFkB and IRF3 were evaluated as above. Table 3 provides the results for IRF3 induction (“A” means <1 μM; “B” means ≥1 μM and <50 μM; “C” means ≥50 μM).

T2 sequence (Q86WV6 whole entry, stated change not applied): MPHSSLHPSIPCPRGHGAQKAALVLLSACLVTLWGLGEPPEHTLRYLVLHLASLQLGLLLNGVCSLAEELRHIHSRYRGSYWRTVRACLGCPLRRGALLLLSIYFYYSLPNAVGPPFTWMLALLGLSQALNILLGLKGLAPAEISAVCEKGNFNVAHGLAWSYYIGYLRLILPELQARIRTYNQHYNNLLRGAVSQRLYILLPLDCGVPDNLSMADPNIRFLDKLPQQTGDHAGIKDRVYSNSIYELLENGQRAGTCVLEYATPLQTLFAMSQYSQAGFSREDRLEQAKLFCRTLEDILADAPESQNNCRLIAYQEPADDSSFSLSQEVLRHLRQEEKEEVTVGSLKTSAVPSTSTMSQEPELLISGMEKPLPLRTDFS
T3 sequence (Q86WV6 whole entry H232R): as the sequence (Q86WV6 whole entry, stated change not applied) above, with H232R counted along it
T1 sequence (Q86WV6 whole entry R71H/G230A/H232R/R293Q): as the sequence (Q86WV6 whole entry, stated change not applied) above, with R71H, G230A, H232R, R293Q counted along it
T4 sequence (Q86WV6 whole entry R71H/G230A/H232R/R293Q): as the sequence (Q86WV6 whole entry, stated change not applied) above, with R71H, G230A, H232R, R293Q counted along it

By EC50 is commonly meant the midpoint of the concentration-response curve. A higher EC50 goes with a need for much substance. As to `CCc1nc(C)oc1C(=O)/N=c1\sc2cc(C(N)=O)cnc2n1C/C=C/Cn1c(NC(=O)c2oc(C)nc2CC)nc2cc(C(N)=O)cc(OCCCO)c21` [compound 109], the EC50 at Human STING (HAQ allele) was 30 to 100 nM; in experiment [1] it was less than 30 nM; at R232 hSTING variant, less than 30 nM; at Human STING, less than 1000 nM.
Consider `CCc1nc(C)oc1C(=O)/N=c1\sc2cc(C(N)=O)cc(OCCCO)c2n1C/C=C/Cn1c(NC(=O)c2oc(C)nc2CC)nc2cc(C(N)=O)cnc21` [compound 146], for which the half-maximal effective concentration (EC50) on Human STING (HAQ allele) was no less than 100 nM; in experiment [1], less than 30 nM; at R232 hSTING variant, less than 30 nM; at Human STING it was less than 1000 nM.
As to `CCc1nc(C)oc1C(=O)/N=c1\sc2cc(C(N)=O)cc(OCCCO)c2n1C/C=C/Cn1c(NC(=O)c2cc(C)nn2CC)nc2cc(C(N)=O)cnc21` [compound 148], the EC50 at Human STING (HAQ allele) was no less than 100 nM; in experiment [1] it was less than 30 nM; at R232 hSTING variant, less than 30 nM; at Human STING, less than 1000 nM.
